Experimental data reported in article PMC4109918, “Design, Synthesis and Pharmacological Evaluation of Novel Vanadium-Containing Complexes as Antidiabetic Agents” (PLoS ONE, 2014).
Where two headings read alike, the source gives them in different places.

Tests used:
FFAs = details: hypoglycemic activity, File S1, cited from earlier work
[1] = parameters: method as in PMID 12888267; details: cited from earlier work
[2] = system: free fatty acids released in adipocytes; test: Insulin-mimetic action: inhibition of free fatty acid release from epinephrine-stimulated adipocytes; type: cell-based; details: rat adipocytes, 30 min with compound at 37°C, then 3 hours with epinephrine; 50% inhibition of FFA release; read-out: IC50 exp (±S.D.) (FFAs)
Description: All rats (250–300 g) and mice (22–25 g) were housed in a temperature controlled room (24°C±1°C) and they had received standard food pellets and tap water […]. At the end of the study (24 h after CIN induction), all animal test subjects were euthanized by inhalation of ether anesthesia. Rat adipocytes were prepared from the fat pads of male Wistar rats by collagenase digestion according to the method of Rodbell. Freshly prepared adipocytes were incubated (37°C, 30 min) with solutions of the vanadium compounds at three concentrations (0.1, 0.5 and 1 mM in isotonic saline and 5 mM glucose), followed by 3 hours of incubation with epinephrine. The inhibitory effect was determined in terms of the decrease of the amount free fatty acids released in adipocytes. All assays were performed in duplicate or triplicate. […] Investigations were carried out on mongrel white mice.

[3] = system: adrenaline hyperglycemia in mongrel white mice; test: In vivo hypoglycemic activity in the adrenaline hyperglycemia model; details: oral, 1/10 of the LD50, 1 hour prior to epinephrine hydrochloride 1 mg/kg s.c.
Description: Determination of hypoglycemic activity of 5 complexes was performed on 75 mice. Adrenaline hyperglycemia was caused by subcutaneous administration of 0.1% epinephrine hydrochloride (AGH) at a dose of 1 mg/kg. […] In each experimental group there were 3 animals and 3 replicates were performed. The content of glucose in whole blood was determined at 0.5, 1 and 2 hours after administration of AGH or glucose using portable glucose monitoring systems, OneTouch Ultra test strip and OneTouch Ultra and Clever check TD4209 and strips Clever check TD4209.

rat = test: Acute toxicity study, rapid method of Prozorovskii (LD50); type: in vivo; parameters: LD50exp: unit not given here; details: for LD50exp: range in brackets; for Class in AD (experimental toxicity class): rat, in vivo
Description: Acute toxicity studies were carried out by rapid method of Prozorovskii. […] The following criteria were used for the evaluation of acute toxicity: the number of dead animals, the timing of their death, LD50 through the night, the picture of intoxication, behavioral change and autopsy results of the survived animals after 14 days. Clinical examination was performed for each animal during the first hour after administration of the substance, and weekly thereafter. Clinical examination included a detailed inspection of the animal in cage, in hands and in the open area. The manifestation and severity of intoxication were noted. Examination of animals in order to identify mortality or signs of variations in health status was conducted on a daily basis. Integrated indicators were assessed weekly during the entire period of observation. Death of animals was recorded daily during entire study period. General condition and behavior of animals as well as type of toxic manifestations, including their development and termination were recorded daily during the procedures for monitoring and inspection of individual animals.

In the case of `Cc1cccc2[n+]1[V+4]1(=[O])([O]C2=O)[O]C(=O)c2cccc(C)[n+]21` [VO(6mpa)2], the IC50 (FFAs; ref 3 (Sakurai et al. 2000)) is listed as 490 µM.

For `Cc1occc(=O)c1[O-].Cc1occc(=O)c1[O-].[O]=[V+2]` [BMOV, bis(maltolato)oxovanadium(IV)], the IC50 (FFAs; ref 5 (Sakurai et al. 2010)) is given as 676 µM and the LD50 [1] is given as 220 mg/kg.

For `O=S(=O)(O)[O][V+4]123(=[O])[O]c4ccccc4C[N+]1(Cc1cccc[n+]12)Cc1cccc[n+]13` (stereo not drawn) [[VIVO(bp-O)HSO4]], the IC50 (FFAs; ref 9 (Nilsson et al. 2009)) is given as 3850 µM.

In the case of `C[C@@H](O)[C@H]1[NH][Zn+2]2([NH][C@H]([C@@H](C)O)C(=O)[O]2)[O]C1=O` [Zn(L-Thr)2], the IC50 (FFAs; ref 8 (Yoshikawa et al. 2001)) is listed as 540 µM.

For `O=C1[O][V+4]2(=[O])([O]C(=O)c3cc(Cl)cc[n+]32)[n+]2ccc(Cl)cc21` [VO(4clpa)2], the IC50 (FFAs; ref 3 (Sakurai et al. 2000)) is given as 700 µM.

In the case of `O=C1[O][V+4]2(=[O])([O]C(=O)c3c(O)ccc[n+]32)[n+]2cccc(O)c21` [VO(3hpa)2], the IC50 (FFAs; ref 1 (Sakurai, Yasui 2003)) is given as 470 µM.

In the case of `O.O.O.O.O.O.O.O.[Na+].[O]=[V-]12([O][O]1)[O][O]2.c1ccc(-c2ccccn2)nc1` [Complex I, Sodium(2,2′-Bipyridyl) oxo-diperoxovanadate(V) octahydrate], the IC50 [2] is reported as 720 ± 90 µM, the “decreasing blood glucose level” value [3] is reported as 50% and the LD50exp (rat) is reported as 108(95–122). For the same molecule, the “Class in AD (experimental toxicity class)” value (shortened to “Class in AD”) (rat) was 3.

For `CCC1=C2[O][V+4]3(=[O])([O]C4=C(CC)OC=C[C@@H]4[O]3)[O][C@H]2C=CO1` [bis(ethylmaltolato)oxovanadium(IV)], the IC50 (FFAs; ref 5 (Sakurai et al. 2010)) is listed as 632 µM.

In the case of `O=C([O-])C([O-])C([O-])C(=O)[O-].O=C([O-])C([O-])C([O-])C(=O)[O-].[K+].[K+].[K+].[K+].[O]=[V+2].[O]=[V+2]` (stereo not drawn) [Complex IV, Potassium bis((m2-d,d-tartrato-O,O′,O′′,O′′′)-oxo-vanadium(IV)) dihydrate], the IC50 [2] is reported as 950 ± 100 µM.

In the case of `CCCCCC1=C2[O][V+4]3(=[O])([O]C4=C(CCCCC)OC(C)=C(OC)C4=[O+]3)[O+]=C2C(OC)=C(C)O1` [VO(alx)2], the IC50 (FFAs; ref 5 (Sakurai et al. 2010)) is given as 553 µM.

For `O=S(=O)([O-])[O-].[O]=[V+2].c1ccc(CN(Cc2ccccn2)Cc2ccccn2)nc1` [[VIVO(tpa)SO4]], the IC50 (FFAs; ref 9 (Nilsson et al. 2009)) is listed as 4600 µM.

In the case of `O=S1(=O)[O][Zn+2][O]1` [ZnSO4], the IC50 (FFAs; ref 8 (Yoshikawa et al. 2001)) is listed as 810 µM.

For `O=C1[O][V+4]2(=[O])([O]C(=O)c3cccc(O)[n+]32)[n+]2c(O)cccc21` [VO(6hpa)2], the IC50 (FFAs; ref 1 (Sakurai, Yasui 2003)) is listed as 800 µM.

In the case of `O=S(=O)([O-])[O-].[O]=[V+2]` [VOSO4, Vanadyl sulfate], the IC50 [2] is reported as 1000 ± 90 µM, the “decreasing blood glucose level” value [3] is reported as 16% and the LD50exp (rat) is reported as 448(356–540). For the same molecule, the “Class in AD” value (rat) was 3 and the IC50 (FFAs; ref 1 (Sakurai, Yasui 2003)) was 840 µM.

In the case of `O=C(N[C@H](Cc1c[nH]c2ccccc12)C(=O)O)c1ccc2[n+](c1)[V+4]1(=[O])([O]C2=O)[n+]2ccccc2C[N+]1(Cc1ccccn1)Cc1ccccn1` [[VVO(pic-trpH)tpa]2+], the IC50 (FFAs; ref 9 (Nilsson et al. 2009)) is listed as 1840 µM.

For `O=C[C@@H]1CC(=O)[NH][Zn@@+2]2([NH]C(=O)C[C@H](C=O)[NH]2)[NH]1` [Zn(L-Asn)2], the IC50 (FFAs; ref 8 (Yoshikawa et al. 2001)) is given as 650 µM.

In the case of `CCc1cccc2[n+]1[V+4]1(=[O])([O]C2=O)[O]C(=O)c2cccc(CC)[n+]21` [VO(6epa)2], the IC50 (FFAs; ref 4 (Sasagawa et al. 2002)) is listed as 810 µM.

In the case of `[O]=[V+4]12([O]C3=COC=C[C@@H]3[O]1)[O]C1=COC=C[C@H]1[O]2` [bis(3-hydroxy-4-pyronato)oxovanadium(IV)], the IC50 (FFAs; ref 2 (Sakurai et al. 2008)) is given as 1180 µM.

In the case of `CC(C)[C@H](C=O)[NH][Zn+2][NH][C@H](C=O)C(C)C` [Zn(L-Val)2], the IC50 (FFAs; ref 8 (Yoshikawa et al. 2001)) is listed as 770 µM.

For `O=C1[O][V+4]2(=[O])([O]C(=O)c3cccc[n+]32)[n+]2ccccc21` [VO(pic)2], the IC50 (FFAs; ref 3 (Sakurai et al. 2000)) is listed as 590 µM.

For `O=C1[O][V+4]2(=[O])([O]C(=O)c3ccc(I)c[n+]32)[n+]2cc(I)ccc21` [VO(5ipa)2], the IC50 (FFAs; ref 3 (Sakurai et al. 2000)) is listed as 450 µM.

In the case of `O=C[C@H]1CCC[N]1[Zn+2][N]1CCC[C@@H]1C=O` [Zn(L-Pro)2], the IC50 (FFAs; ref 8 (Yoshikawa et al. 2001)) is given as 890 µM.

Work on `CC(=O)/C=C(/C)[O-].CC(=O)/C=C(/C)[O-].[O]=[V+2]` [Complex II, Bis(acetylacetonato)oxo-vanadium(IV)] yielded an IC50 [2] of 950 ± 90 µM.

For `[O]=[V+4]12([O][n+]3ccccc3[S]1)[O][n+]1ccccc1[S]2` [VO(opt)2], the IC50 (FFAs; ref 6 (Sakurai et al. 1999)) is listed as 190 µM.

In the case of `Cc1ccc[n+]2c1C(=O)[O][V+4]21(=[O])[O]C(=O)c2c(C)ccc[n+]21` [VO(3mpa)2], the IC50 (FFAs; ref 3 (Sakurai et al. 2000)) is given as 660 µM.

In the case of `Cc1occc(=O)c1[O][Zn+2][O]c1c(C)occc1=O` [Zn(maltolat)2], the IC50 (FFAs; ref 7 (Yoshikawa et al. 2002)) is given as 590 µM.

With `CC(C)(C)OC(=O)[N-]C(=N)N.CC(C)(C)OC(=O)[N-]C(=N)N.[O]=[V+2]` [Complex III, Bis{tert-butyl[amino(imino)methyl]carbamato} oxovanadium (IV)] the IC50 [2] was 540 ± 70 µM, the “decreasing blood glucose level” value [3] was 42% and the LD50exp (rat) was 190(170–210). For the same molecule, the “Class in AD” value (rat) was 3.

For “(S)-[2-(N-salicylidene) amino-propionate] oxovanadium(IV) monohydrate [Complex V]”, the IC50 [2] was 810 ± 60 µM, the “decreasing blood glucose level” value [3] was 26% and the LD50exp (rat) was 245(210–280). For the same molecule, the “Class in AD” value (rat) was 3.

For `Cc1cccc2[n+]1[Zn+2]1([O]C2=O)[O]C(=O)c2cccc(C)[n+]21` [Zn(6mpa)2], the IC50 (FFAs; ref 7 (Yoshikawa et al. 2002)) is listed as 310 µM.

In the case of `O=C1[O][Zn+2]2([O]C(=O)c3cccc[n+]32)[n+]2ccccc21` [Zn(pic)2], the IC50 (FFAs; ref 7 (Yoshikawa et al. 2002)) is given as 640 µM.

In the case of `COC(=O)[C@@H](Cc1c[nH]c2ccccc12)NC(=O)c1ccc2[n+](c1)[V+4]1(=[O])([O]C2=O)[O]C(=O)c2ccc(C(=O)N[C@H](Cc3c[nH]c4ccccc34)C(=O)OC)c[n+]21` [[VIVO(pic-trpMe)2]], the IC50 (FFAs; ref 9 (Nilsson et al. 2009)) is listed as 410 µM.
